Measurements as given in patent publication US20150133493A1, “COUMARIN-BASED COMPOUNDS FOR THE TREATMENT OF ALZHEIMER'S DISEASE AND CANCER” (Sloan-Kettering Institute for Cancer Research, priority 2008, published 2015).
Entries after “also recorded” stand apart in the source; their conditions may differ.

What was measured:
γ-secretase [1] = molecular target: T1, γ-secretase (Homo sapiens, UniProt P49768); assay: In vitro γ-secretase activity assay, Aβ40 production (ECL); type: biochemical; conditions: for IC50: in vitro inhibition of γ-secretase activity that generates Aβ40, 2.5 hr at 37° C., ECL detection; for Aβ40/Aβ42 ratio: ratio of IC50 for Aβ40 to IC50 for Aβ42
T1 construct: endogenous in cells
Protocol: (§1) FIG. 2. In vitro characterization of coumarin-dimer allosteric GSIs against various γ-secretase cleavage products. The potency of 7 unique coumarin-based γ-secretase inhibitors were evaluated for efficacy against γ-secretase-mediated production of Aβ40, Aβ42, Aβ38, and Notch. Additionally, the pan-GSI Compound E was also examined in these assays. The IC50 values were calculated from the dose response curves using a non-linear regression analysis in Prism software. IC50 values are presented with standard deviation (n=3 for each data point). The three β-amyloid-detection in vitro assays were modified from our previously reported assay (21) using a biotinylated substrate that eliminated the requirement of anti-β-amyloid biotinylated antibody. Ruthenylated antibodies that detected the -40, -42, or -38 cleavage site were incorporated to detect proteolysis indicative of γ-secretase activity. In vitro Notch assay utilized a recombinant transmembrane portion of the Notch peptide and anti-Notch1 SM320 antibody in conjunction with ruthenylated anti-rabbit secondary antibodies. Electrochemiluminescence was quantified on an Analyzer (BioVeris). The selectivity ratio for Aβ42 inhibition over Aβ40 and Notch are indicated in the two far right columns.
The assay protocol employed was a modified version of that described in Li et al., 2000, Proc. Nat'l Acad. Sci. USA 97:6183-643, incorporated herein by reference. Briefly, recombinant peptide substrate was incubated with γ-secretase (40 μg/ml) in the presence or absence of test compound. The reaction mixture contained 0.25% CHAPSO, 0.1 μg/μl BSA, protease inhibitor, 50 mM PIPES, pH 7.0, 5 mM MgCl2, 5 mM CaCl2 and 150 mM KCl. The reaction was incubated for 2.5 hr at 37° C. and stopped by adding RIPA buffer (150 mM NaCl, 1.0% NP-40, 0.5% sodium deoxycholate, 0.1% SDS, 50 mM Tris HCl, pH 8.0). The products were detected with various antibody combinations using electrochemiluminescence (ECL) technology as previously described in Li et al., 2000, Proc. Nat'l Acad. Sci. USA 97:6183-643; Lai et al., 2003, J. Biol. Chem. 278: 22475-22481; and Yin et al., 2007, J. Biol. Chem. 282:23639-23644. The amount of product was determined using synthetic peptide or recombinant standards.
(§2) Cell membranes and solubilized γ-secretase were prepared as described previously (36). The in vitro and cell γ-secretase assays detecting either Aβ38, Aβ40, or Aβ42 cleavage were performed similar as previously described (21, 36). Cleaved product was detected using ruthenylated antibodies that recognize specific APP cleavage sites (Aβ31-38*, G2-10*, or G2-11* antibody for Aβ38, Aβ40, or Aβ42 respectively). The Km and Vmax in the presence and absence of γ-secretase inhibitors were analyzed by non-linear curve fit using the software SigmaPlot 8.0 with the Michaelis-Menten equation (v=Vm [S]/(Km+[S]; v: initial rate; Vm: maximum velocity; Km: the Michaelis-Menten constant, S: substrate).

γ-secretase [2] = molecular target: T1, γ-secretase; assay: In vitro γ-secretase activity assay, Aβ42 production (ECL); type: biochemical; conditions: in vitro inhibition of γ-secretase activity that generates Aβ42; 2.5 hr at 37° C., ECL detection
Protocol: as §1, with “The potency of 7 unique coumarin-based γ-secretase inhibitors were evaluated for efficacy against γ-secretase-mediated production of Aβ40, Aβ42, Aβ38, and Notch. Additionally, the pan-GSI Compound E was also examined in these assays.” left out, “IC50 values are presented with standard deviation (n=3 for each data point).” left out, “(BioVeris).” for “(BioVeris). The selectivity ratio for Aβ42 inhibition over Aβ40 and Notch are indicated in the two far right columns.”
Briefly, recombinant peptide substrate was incubated with γ-secretase (40 μg/ml) in the presence or absence of test compound. […] The reaction was incubated for 2.5 hr at 37° C. and stopped by adding RIPA buffer (150 mM NaCl, 1.0% NP-40, 0.5% sodium deoxycholate, 0.1% SDS, 50 mM Tris HCl, pH 8.0). […] The amount of product was determined using synthetic peptide or recombinant standards.
as §2

[3] = test system: N2a mouse neuroblastoma cells that stably express Swedish-mutated APP; assay: Cell-based assay of secreted Aβ42, Aβ40, Aβ38 in APPsw-N2A cells; conditions: 24 hrs, in words, CS-1 up to 30 μM
Protocol: FIG. 3. Cellular evaluation of the coumarin-dimer CS-1 and its selective inhibition of Aβ42. Compounds were incubated with the APPsw-N2A mouse neuroblastoma cells for 24 hours and media were analyzed by biotinylated 4G8 and ruthenylated antibodies specific for each respective cleavage product. […] (d) Immunoprecipitation mass spectrometry analysis of CS-1 effect on secreted β-amyloid species. Aβ peptides were immunoprecipitated using 4G8 antibody and isolated with Protein G+/A agarose beads. Samples were analyzed by MALDI-MS. Samples shown are representative and each data point was performed in triplicate. (e) Cell-based Notch cleavage assay. HEK-293 cells were transfected with ΔE Notch construct and then Compound E and CS-1 were evaluated for their ability to inhibit γ-secretase-mediated Notch intracellular domain production. […] Western blot is representative and was performed in triplicate. (f) Effect of CS-1 on AICD production. N2A APPsw cell membrane was prepared and incubated with the indicated concentrations of CS-1 at 37° C. for 2 hours. The generated AICD and APP-CTFs were detected by Western Blotting using APPc antibody. Western blot is representative and was performed in triplicate.
We next set out to determine if the selective inhibition of Aβ42 was maintained in a cell-based system for APP processing. First, we compared our lead compound CS-1 (FIG. 3a) to Compound E (FIG. 3b) and the GSM compound indomethacin (FIG. 3c). N2a mouse neuroblastoma cells that stably express Swedish-mutated APP substrate were treated with the indicated compounds for 24 hrs at 37° C. Following 24 hr incubation period, the medium was collected from the cells and assayed for secreted Aβ42, Aβ40, and Aβ38. […] The result for indomethacin mirrored those findings by Kukar et al. whereby a different cell-based system was utilized (17), further validating our assay system for analysis of these Aβ species. […] This may reflect subtle variations between the cellular and in vitro conformations of γ-secretase. Nevertheless, the cell-based studies confirmed that CS-1 maintains a preference for inhibition of the γ-secretase mediated production of Aβ42 over Aβ40 or Aβ38, which is distinct to previously reported GSMs (17) and inhibitors (14-15, 18).
as §2

Row | SMILES | IC50 (γ-secretase [1]) | Aβ40/Aβ42 ratio (γ-secretase [1]) | IC50 (γ-secretase [2]) | effect on secreted Aβ38 production [3] | effect on secreted Aβ40 production [3] | effect on secreted Aβ42 production [3]
1 | O=c1oc2ccccc2c(O)c1C(/C=C/c1cc(F)c(F)c(F)c1)c1c(O)c2ccccc2oc1=O [(trans)-1] | 3.7 µM | 1.3 | 2.9 µM | – | – | –
2 | COc1ccc(/C=C/C(c2c(O)c3ccccc3oc2=O)c2c(O)c3ccccc3oc2=O)cc1 [(trans)-258] | 21.5 µM | 3.8 | 5.6 µM | – | – | –
3 | O=c1[nH]c2ccccc2c(O)c1C(c1cc(F)c(F)c(F)c1)c1c(O)c2ccccc2[nH]c1=O [Compound 45] | 8 µM | 2.4 | 3.4 µM | – | – | –
4 | O=c1sc2ccccc2c(O)c1C(c1cc(F)c(F)c(F)c1)c1c(O)c2ccccc2sc1=O [Compound 53] | 1.3 µM | 2.6 | 0.5 µM | – | – | –
5 | O=c1oc2ccccc2c(O)c1C(c1cc(F)cc(F)c1)c1c(O)c2ccccc2oc1=O [Compound 61] | 0.34 µM | 2.0 | 0.17 µM | – | – | –
6 | COc1ccc(C(c2c(O)c3ccccc3oc2=O)c2c(O)c3ccccc3oc2=O)cc1F [Compound 77] | 6.2 µM | 2.2 | 2.8 µM | – | – | –
7 | Cc1ccc2oc(=O)c(C(c3cc(F)c(F)c(F)c3)c3c(O)c4cc(C)ccc4oc3=O)c(O)c2c1 [Compound 197] | 3.26 µM | 2.1 | 1.59 µM | – | – | –
8 | O=c1oc2ccccc2c(O)c1C(Cc1ccc(F)cc1)c1c(O)c2ccccc2oc1=O [Compound 199] | 4 µM | 4.4 | 0.9 µM | – | – | –
9 | O=c1oc2ccc(F)cc2c(O)c1C(c1cc(F)c(F)c(F)c1)c1c(O)c2cc(F)ccc2oc1=O [Compound 203] | 2.6 µM | 2.9 | 0.9 µM | – | – | –
10 | O=c1oc2ccccc2c(O)c1C(c1cccc(C(F)(F)F)c1)c1c(O)c2ccccc2oc1=O [Compound 209] | 2 µM | 2.5 | 0.8 µM | – | – | –
11 | CCc1ccc(C(c2c(O)c3ccccc3oc2=O)c2c(O)c3ccccc3oc2=O)cc1 [Compound 210] | 4.6 µM | 2.4 | 1.9 µM | – | – | –
12 | C/C=C/C=C/C(c1c(O)c2ccccc2oc1=O)c1c(O)c2ccccc2oc1=O [Compound 257] | 9.9 µM | 1.4 | 7.3 µM | – | – | –
13 | O=c1oc2ccccc2c(O)c1C1c2cc(F)c(F)cc2Oc2c1c(=O)oc1ccccc21 (stereo not shown) [Compound 369] | 2.6 µM | 2.9 | 0.9 µM | – | – | –
14 | Nc1ccc2c(c1)Oc1c(c(=O)oc3ccccc13)C2c1c(O)c2ccccc2oc1=O (stereo not shown) [Compound 372] | 19.4 µM | 2.0 | 9.9 µM | – | – | –
15 | O=c1oc2ccccc2c(O)c1C1c2c(F)c(F)c(F)c(F)c2Oc2c1c(=O)oc1ccccc21 (stereo not shown) [Compound 423] | 3.4 µM | 2.6 | 1.3 µM | – | – | –
16 | O=C(Cc1cc(F)cc(F)c1)c1c(O)c2ccccc2oc1=O [Compound 560] | 89.9 µM | 3.3 | 26.9 µM | – | – | –
17 | O=c1oc2ccccc2c(O)c1C(c1ccc(C(F)(F)F)cc1)c1c(O)c2ccccc2oc1=O [Compound 728] | 7 µM | 4.4 | 1.6 µM | – | – | –
18 | CC(=O)Nc1ccc(C(c2c(O)c3ccccc3oc2=O)c2c(O)c3ccccc3oc2=O)cc1 [Compound 732] | 63.9 µM | 4.0 | 15.9 µM | – | – | –
19 | O=c1oc2ccccc2c(O)c1C(c1c(O)c2ccccc2oc1=O)C1CCCCC1 [Compound 733] | 4.2 µM | 3.5 | 1.2 µM | – | – | –
20 | O=c1oc2ccccc2c(O)c1C(c1ccccc1F)c1c(O)c2ccccc2oc1=O [Compound 734] | 1.95 µM | 0.3 | 7.2 µM | – | – | –
21 | Oc1ccnc(O)c1C(c1cc(F)c(F)c(F)c1)c1c(O)ccnc1O [Compound 738] | > 100 µM | – | > 100 µM | – | – | –
22 | O=c1oc2ccccc2c(O)c1Cc1cc(F)c(F)c(F)c1 [compound 476] | > 100 µM | – | > 100 µM | – | – | –
23 | O=C(CC(c1cc(F)c(F)c(F)c1)c1c(O)c2ccccc2oc1=O)NCc1cc(F)cc(F)c1 (stereo not shown) [compound 512] | 1.86 µM | 1.5 | 1.24 µM | – | – | –
24 | O=C(Cc1cc(F)cc(F)c1)NCCNC(=O)CC(c1cc(F)c(F)c(F)c1)c1c(O)c2ccccc2oc1=O (stereo not shown) [compound 520] | 9.23 µM | 2.0 | 4.53 µM | – | – | –
25 | Cc1coc(=O)c(C(c2cc(F)c(F)c(F)c2)c2c(O)c(C)coc2=O)c1O [compound 668] | 4.2 µM | 2.5 | 1.7 µM | – | – | –
26 | O=c1oc2ccccc2c(O)c1C(c1ccc(Cl)cc1)c1c(O)c2ccccc2oc1=O [compound 729] | 1.7 µM | 1.4 | 1.2 µM | – | – | –
27 | O=c1oc2ccccc2c(O)c1C(c1ccc(Br)cc1)c1c(O)c2ccccc2oc1=O [compound 730] | 1.7 µM | 1.4 | 1.2 µM | – | – | –
28 | O=c1oc2ccccc2c(O)c1C(c1ccc(I)cc1)c1c(O)c2ccccc2oc1=O [compound 731] | 6.1 µM | 4.1 | 1.5 µM | – | – | –
29 | COc1ccc2c(c1)c(CC(=O)O)c(C)n2C(=O)c1ccc(Cl)cc1 [indomethacin] | – | – | – | potently increases; also recorded: significantly enhanced | little effect; also recorded: no effect | reduces; also recorded: abrogated
